One compound from article PMC7889647 (Basic & clinical pharmacology & toxicology, 2020) can be followed below.

The experiment has as its target hERG1a (human ether-a-go-go-related gene potassium channel, Kv11.1) (Homo sapiens, UniProt Q12809). The experiment is classed as cell-based.

Sequence of hERG1a (human ether-a-go-go-related gene potassium channel, Kv11.1) (Q12809 whole entry): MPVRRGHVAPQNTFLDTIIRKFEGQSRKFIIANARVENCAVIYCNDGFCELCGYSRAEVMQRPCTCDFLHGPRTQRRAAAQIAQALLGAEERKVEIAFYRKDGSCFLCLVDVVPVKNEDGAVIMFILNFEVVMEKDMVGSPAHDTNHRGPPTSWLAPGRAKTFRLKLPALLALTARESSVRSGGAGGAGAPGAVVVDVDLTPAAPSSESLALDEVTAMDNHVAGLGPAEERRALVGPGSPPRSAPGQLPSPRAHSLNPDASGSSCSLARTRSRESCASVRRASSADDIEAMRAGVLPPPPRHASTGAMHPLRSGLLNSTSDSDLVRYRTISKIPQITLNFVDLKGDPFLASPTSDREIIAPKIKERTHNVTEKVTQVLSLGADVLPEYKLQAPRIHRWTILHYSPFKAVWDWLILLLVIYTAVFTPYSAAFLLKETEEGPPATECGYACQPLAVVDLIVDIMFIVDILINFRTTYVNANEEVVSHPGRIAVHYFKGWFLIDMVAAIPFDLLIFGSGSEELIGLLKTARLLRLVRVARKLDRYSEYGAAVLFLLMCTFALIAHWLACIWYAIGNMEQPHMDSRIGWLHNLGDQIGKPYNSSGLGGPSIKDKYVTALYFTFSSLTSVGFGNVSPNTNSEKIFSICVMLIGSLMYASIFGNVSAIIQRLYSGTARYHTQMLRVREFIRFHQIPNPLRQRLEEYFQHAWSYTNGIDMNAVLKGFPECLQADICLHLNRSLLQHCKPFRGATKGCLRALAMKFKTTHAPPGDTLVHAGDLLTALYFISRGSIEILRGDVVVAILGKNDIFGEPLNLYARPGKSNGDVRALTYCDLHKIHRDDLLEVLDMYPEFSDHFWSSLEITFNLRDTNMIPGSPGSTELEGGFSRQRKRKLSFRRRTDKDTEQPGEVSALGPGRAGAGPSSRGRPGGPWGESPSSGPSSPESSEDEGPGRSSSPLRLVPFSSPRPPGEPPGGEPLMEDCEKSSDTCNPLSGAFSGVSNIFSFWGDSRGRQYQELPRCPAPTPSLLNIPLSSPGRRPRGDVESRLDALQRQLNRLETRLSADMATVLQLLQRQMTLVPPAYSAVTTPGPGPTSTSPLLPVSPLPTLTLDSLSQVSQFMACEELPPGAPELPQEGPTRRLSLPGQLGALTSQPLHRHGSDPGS

Take `N#Cc1ccc(C(c2ccc(C#N)cc2)n2cncn2)cc1` [letrozole]: half-maximal inhibition (IC50) was put at 373 nM.
